# Assay results as given in patent US20030119067A1, “PYK2 related products and methods” (Sugen, Inc., priority 1996, published 2003).
# Legend:
# Format in all cases: cell-based, rat
# PYK2 = assay: Tyrosine phosphorylation of PYK2 in PC12 cells (immunoprecipitation, anti-phosphotyrosine immunoblot); conditions: PC12 cells, 37° C.
# Src = Src kinase activity in PC12 cells; conditions: PC12 cells stimulated with LPA or bradykinin
# Method: (§1) Sadoshima & Izumo, EMBO J. 15:775-787 (1996); Wan et al., Nature 380:541-544 (1996). The EGF-receptor and erbB2 were also implicated in MAP kinase activation induced by LPA and other agonists of G-protein coupled receptors. Daub et al., Nature 379:557-564 (1996). We have tested whether LPA and bradykinin can activate Src and the EGF receptor in PC12 cells.
# (§2) PC12 cells were left untreated (−) or stimulated with LPA (2.5 mM) or bradykinin (1 mM) for 3 min at 37° C. Src was immunoprecipitated and immunoblotted with antibodies against Src, anti-pY416^src antibodies or antibodies against PYK2.
# PYK2/Src complex = assay: Association of PYK2 with activated Src in PC12 cells (co-immunoprecipitation); conditions: LPA 2.5 mM or bradykinin 1 mM, 3 min, 37° C.
# Source text: We examined the possibility of association between the two protein tyrosine kinases PYK2 and Src in response to LPA or bradykinin stimulation. Lysates from stimulated or unstimulated cells were subjected to immunoprecipitation with antibodies against Src followed by immunoblotting with antibodies against PYK2, against Src or anti-pY416src antibodies that specifically recognize activated Src. Liu et al., Oncogene 8:1119-1126 (1993).
# as §2
# EGF receptor = assay: Activation of EGF receptor in PC12 cells
# Source text: as §1
substance,measurement,setting,value
lysophosphatidic acid [LPA],tyrosine phosphorylation of PYK2,"PYK2; LPA 2.5 mM or bradykinin 1 mM, 3 min",rapid tyrosine phosphorylation of PYK2
same,increase in the phosphorylation state of PYK2 relative to unstimulated cells,"PYK2; LPA 2.5 mM, bradykinin 1 mM 3 min, PMA 1 mM 10 min",4 fold
same,increase in Src kinase activity,Src,approximately three to four
same,complex formation of PYK2 with activated Src,PYK2/Src complex,forms a complex with activated Src
same,activation of EGF receptor,EGF receptor,unable to detect
